Laboratory results published in PMC7035293, “Structural ensemble of a glutamate transporter homologue in lipid nanodisc environment” (Nature Communications, 2020).
One block for each molecule: values may come before it.

Tests used:
GltTk = biological target: T1, GltTk (Thermococcus kodakarensis, UniProt Q5JID0); test: cryo-EM structure of the complex in lipid nanodiscs; conditions: 300 mM Na+, aspartate binding site
T1 construct: gene TK0986; C-terminal His8 tag, expressed in E. coli MC1061 (pBAD24-derived plasmid), purified apo, reconstituted in MSP2N2 lipid nanodiscs; homotrimer

[1] = biological target: glutamate transporter homologue GltTk from Thermococcus kodakarensis (Thermococcus kodakarensis) (UniProt Q5JID0); test: cryo-EM structure; GltTk in MSP2N2 nanodiscs (E. coli polar lipids:egg PC 3:1 w/w), 20 mM Tris-HCl pH 8.0, 300 mM NaCl; five structures: Na+-only, L-aspartate unsaturated (two structures), L-aspartate saturated, 120 uM DL-TBOA; 200 keV Talos Arctica

T1 sequence (Q5JID0 entry or part of it): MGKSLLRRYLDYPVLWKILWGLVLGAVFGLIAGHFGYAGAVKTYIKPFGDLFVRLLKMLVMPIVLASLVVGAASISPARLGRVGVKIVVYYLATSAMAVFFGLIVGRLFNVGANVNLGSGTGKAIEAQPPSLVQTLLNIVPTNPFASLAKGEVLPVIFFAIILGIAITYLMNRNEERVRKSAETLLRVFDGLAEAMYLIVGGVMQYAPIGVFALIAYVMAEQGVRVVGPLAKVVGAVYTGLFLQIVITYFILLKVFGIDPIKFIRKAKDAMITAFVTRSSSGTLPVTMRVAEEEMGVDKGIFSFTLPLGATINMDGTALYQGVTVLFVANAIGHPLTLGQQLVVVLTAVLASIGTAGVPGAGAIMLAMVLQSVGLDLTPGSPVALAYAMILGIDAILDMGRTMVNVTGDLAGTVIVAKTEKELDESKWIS

Molecule: N[C@@H](CC(=O)O)C(=O)O [L-aspartate]
cryo-EM structure of the complex in lipid nanodiscs (GltTk; pH 8.0, 50 uM L-aspartate with 5.6 uM nanodiscs, intermediate-outward occluded state, also sub-saturating structures 6XWO and 6XWP): density for the amino acid substrate in the binding site is observed

stoichiometry N [1]: 3
Molecule: glutamate transporter homologue GltTk from Thermococcus kodakarensis (from UniProt Q5JID0 1-430) (natural protein)

Molecule: NC(C(=O)O)C(OCc1ccccc1)C(=O)O (racemic) [DL-TBOA]
cryo-EM structure of the complex in lipid nanodiscs (GltTk; pH 8.0, 120 uM DL-TBOA with 4.5 uM nanodiscs, competitive, outward-open state, two of three protomers occupied): The fully-outward protomers have wide open HP2 gates
